Experimental data as given in US20250276999A1, “PEPTIDES FOR PROMOTING HAIR FOLLICLE NEOGENESIS, AND PREVENTION/MITIGATION OF UNTOWARD EFFECTS OF RADIATION TREATMENT” (Trustees of Tufts College, priority 2022, published 2025).
Where two headings read alike, the source gives them in different places.

Experiments:
X-ray irradiated mice = experiment: Radiation dermatitis murine model (thoracic X-ray irradiation); format: in vivo, C57BL/6 mice
Procedure: Animals were irradiated in the RS2000 small animal irradiator. The RS2000 provides a cone-shaped radiation field with irradiation at 12.39-40.50 cm from the X-ray source. For dose measurements, irradiation was performed with the following settings: 160 kVp, 25 mA, 90 s irradiation time and 0.3 mm Cu beam filtration. The approximate HVL provided by the manufacturer was 0.62 mm Cu. […] A custom lead shield was placed on the floor of the irradiator, with the mouse thoracic region ˜43.75 cm from the X-ray source. Dose measurements were conducted twice to account for set-up error and reproducibility. […] The dose rate was reported for each aperture position 1-4 as an absorbed dose rate to water (ADRW, Gy/min) and the two repeated measurements were averaged.
Mice (12-14 weeks of age) were anesthetized using inhaled anesthesia (isoflurane), and the fur was clipped on the dorsal side of the thoracic region. […] Animals were then anesthetized with injected anesthesia (150 mg/kg ketamine/18 mg/kg xylazine) and placed in Lucite jigs for exposure to 16.5 Gy thoracic irradiation in the RS2000 X-ray irradiator as previously described [19].
Animals were monitored daily for 85 days post-irradiation for both radiation dermatitis and combined injury models. Radiation dermatitis was separately scored for hair loss, erythema, scale, and ulceration. Scoring for erythema, scale and ulceration were previously described: 0=none; 1=minimal; 2=mild; 3=moderate; 4=marked [19]. Because all animals underwent fur clipping prior to irradiation and wounding, scoring for hair loss was determined as failure to regrow hair in the irradiated areas: 0=none; 1=minimal; 2=mild; 3=moderate; 4=marked. Animals were photographed for the measurement of wounds and for dermatitis scoring. […] Weight was measured as an indication of overall health.

[1] = tested on: X-ray irradiated and wounded mice; experiment: Combined injury murine model (thoracic X-ray irradiation plus wound); format: in vivo, C57BL/6 mice
From the text: The C57BL/6 strain of mice has been utilized extensively for the study of radiation-induced skin injuries. We determined that 16 Gy is the minimal dosage for the induction of radiation burns in C57BL/6 mice that are not repaired within 45 days. Sham irradiated mice without wounds were used as controls for radiation dermatitis, and treated identically as irradiated mice. Wounded mice, without radiation, were used as controls for combined injury.
Animals were irradiated in the RS2000 small animal irradiator. The RS2000 provides a cone-shaped radiation field with irradiation at 12.39-40.50 cm from the X-ray source. For dose measurements, irradiation was performed with the following settings: 160 kVp, 25 mA, 90 s irradiation time and 0.3 mm Cu beam filtration. The approximate HVL provided by the manufacturer was 0.62 mm Cu. The University of Wisconsin Medical Radiation Research Center (UW MRRC) provided eight acrylic mouse phantoms with three (1×1×1 mm) Harshaw thermoluminenscence dosimeter (TLD)-100 microcubes (ThermoElectron Corp., Oakwood Village, OH) embedded in each phantom. The cylindrical phantom had dimensions of 27 mm in diameter (D)×65 mm in length (L) and was stabilized by a cylindrical insert 15 mm (D)×27 mm (L) with a 3 mm thick stand. A custom lead shield was placed on the floor of the irradiator, with the mouse thoracic region ˜43.75 cm from the X-ray source. Dose measurements were conducted twice to account for set-up error and reproducibility. TLDs were processed at UW MRRC using a national standard with an expanded uncertainty (k=2) of 5%. The dose rate was reported for each aperture position 1-4 as an absorbed dose rate to water (ADRW, Gy/min) and the two repeated measurements were averaged.
Mice (12-14 weeks of age) were anesthetized using inhaled anesthesia (isoflurane), and the fur was clipped on the dorsal side of the thoracic region. Two days after fur clipping, mice to be used for combined injury were given acetaminophen (150 mg/kg in 0.5 ml sterile saline) by gavage. Animals were then anesthetized with injected anesthesia (150 mg/kg ketamine/18 mg/kg xylazine) and placed in Lucite jigs for exposure to 16.5 Gy thoracic irradiation in the RS2000 X-ray irradiator as previously described. For combined injury, immediately following thoracic irradiation and while still under anesthesia, the area of the skin was scrubbed with betadine or chlorhexidine, followed by cleaning with an alcohol pad. A 9/16 inch diameter punch biopsy tool was used to create a 1 cm wound in the central dorsal thoracic region, roughly in the center of the field of radiation exposure. The panniculus carnosus muscle and overlying skin will be removed. The wound will be left open to air. The size of the wound approximates 15% of the total body skin surface.
TSN6 peptide (5 μg/day in 50 μl sterile saline) or hepatocyte growth factor (HGF; 3.3 μg/day in 50 μl sterile saline) or vehicle (sterile saline, 50 μl) were injected subcutaneously on days 2, 7 and 10 post-irradiation. Injections were made caudal, adjacent to the irradiated or irradiated/wounded area.
Animals were monitored daily for 85 days post-irradiation for both radiation dermatitis and combined injury models. Radiation dermatitis was separately scored for hair loss, erythema, scale, and ulceration. Scoring for erythema, scale and ulceration were previously described: 0=none; 1=minimal; 2=mild; 3=moderate; 4=marked. Because all animals underwent fur clipping prior to irradiation and wounding, scoring for hair loss was determined as failure to regrow hair in the irradiated areas: 0=none; 1=minimal; 2=mild; 3=moderate; 4=marked. Animals were photographed for the measurement of wounds and for dermatitis scoring. […] Weight was measured as an indication of overall health.

[2] = tested on: wound re-epithelization and closure; settings: in vitro, previous studies; cited from earlier work
[3] = tested on: dermal papilla (DP) cells; experiment: Cell viability assay (MTT); format: cell-based; settings: treated for four days, in vitro
Procedure: Cell viability assay: Keratinocytes and dermal papilla cells were plated at 4000 and 2000 cells/well respectively in a 96 well plate with six replicates and cultured overnight. The media was changed and appropriate treatment-vehicle, scrambled peptide or active peptide—was added to the well. The media were changed with fresh media containing peptides 2 days after initial treatment, and the total culture period was 4 days. The cell viability was then measured using CellTiter […] Non-Radioactive Cell Proliferation Assay (MTT) (Promega Corporation). Briefly, 15 μL of dye solution was added to each well and incubated for 4 h at 37° C. and 5% CO2. Next 100 μL of stop solution was added to the mixture, incubated for an hour and absorbance was recorded at 570 nm using a plate reader.
Materials and Methods: Cultured dermal papilla (DP) cells, specialized skin fibroblasts isolated from the base of hair follicles, were treated with TSN18 for four days. Cell viability was measured using the CellTiter 96 Non-radioactive cell proliferation assay (MTT) kit. Alkaline phosphatase activity, a marker of trichogenicity was measured with the alkaline phosphatase yellow (pNPP) liquid substrate system for ELISA. […] The bandages were changed at two weeks and removed after four weeks and the grafts were monitored through 10 weeks. […]

[4] = tested on: wound re-epithelization and closure; settings: in BALB/c mice, previous studies; cited from earlier work
grafted DECs = experiment: Graft survival and size of TSN18-treated DECs grafted on nude mice; format: in vivo, Cr: NIH(S)-nu/nu mice
Procedure: Materials and Methods: Cultured dermal papilla (DP) cells, specialized skin fibroblasts isolated from the base of hair follicles, were treated with TSN18 for four days. Cell viability was measured using the CellTiter 96 Non-radioactive cell proliferation assay (MTT) kit. Alkaline phosphatase activity, a marker of trichogenicity was measured with the alkaline phosphatase yellow (pNPP) liquid substrate system for ELISA. A pilot study was performed to see whether incorporation of TSN18 active peptide in DECs improves graft survival or size. For the construction of DECs, human DP cells suspended in 1 mg/mL rat tail type I collagen were plated on inserts placed in six-well plates and incubated in media containing TSN18 active or scrambled peptide for 3 days. Subsequently, human neonatal foreskin keratinocytes were layered on top and the media changed to Epi medium containing TSN18 active or scrambled peptide for 2 days. […] The bandages were changed at two weeks and removed after four weeks and the grafts were monitored through 10 weeks. […] At the end of the experiment, the histological appearance of grafts was evaluated for the presence of a human stratified squamous epithelium and the presence or absence of human cells was assessed by staining for human leukocyte antigen. Graft sizes were measured by tracing the grafts and area determined using ImageJ (NIH) software.

dermal papilla cells = experiment: Alkaline phosphatase activity (marker of trichogenicity) in cultured cells; format: cell-based; settings: TSN18, treated for four days, in vitro
Procedure: Dermal papilla cells regulate hair follicle development and growth, unfortunately, maintaining dermal papilla cells inductive capacity is difficult in culture, as evident by their gradual loss of alkaline phosphatase activity in culture^3. To test if TSN peptides can increase alkaline phosphatase activity keratinocytes and dermal papilla cells were plated at 4000 and 2000 cells/well respectively in a 96 well plate with six replicates and cultured overnight. The media was changed and appropriate treatment-vehicle, scrambled peptide or active peptide—was added to the well. The media were changed with fresh media containing peptides 2 days after initial treatment, and the total culture period was 4 days, following which alkaline phosphatase activity was measured (FIG. 1). […]
Alkaline Phosphatase activity: Keratinocytes and dermal papilla cells were plated at 4000 and 2000 cells/well respectively in a 96 well plate with six replicates and cultured overnight. […] Alkaline phosphatase activity was measured according to manufacturer's instructions using Alkaline Phosphatase Yellow (pNPP) Liquid Substrate System for ELISA (Sigma Aldrich).
Materials and Methods: Cultured dermal papilla (DP) cells, specialized skin fibroblasts isolated from the base of hair follicles, were treated with TSN18 for four days. […] Graft sizes were measured by tracing the grafts and area determined using ImageJ (NIH) software.

mice with CI = experiment: Combined injury (CI) pilot study with active or scrambled peptide; format: in vivo, C57BL/6 mouse; settings: s.c. near wound on days 2, 7, 10 post-irradiation; 5 mice per group (FIG. 15)
From the text: Mice were exposed to thoracic X-ray irradiation without excision wounding to induce CRI, and with an experimental excision wound within the irradiated region to induce CI. Animals were scored by researchers blinded to the treatment groups. Photographic documentation was made for each experiment. We evaluated the rate of wound healing from days 1-30 post-irradiation, and the severity of dermatitis was scored using four variable measures (erythema, scale, hair loss, and ulceration) in the mice from 14 days post-irradiation (dpi) until necropsy. Specific cellular and protein expression changes were determined using western blotting and immunohistochemistry (IHC). To evaluate the efficacy of bioactive peptides, mice with CI were treated with active peptides or scrambled peptides (negative control) by subcutaneous injection near the wound site on days 2, 7, and 10 post-irradiation. Additionally, vehicle control CI animals received saline (vehicle for the peptides) injections in the same volumes on the same days.

[5] = 16.5 Gy, s.c. days 2, 7, 10 post-irradiation, TSN6 5 μg/day, HGF 3.3 μg/day, vs vehicle
[6] = 16.5 Gy plus wound, s.c. days 2, 7, 10, TSN6 5 μg/day, HGF 3.3 μg/day

Substance | ulceration score (X-ray irradiated mice; 16.5 Gy, s.c. days 2, 7, 10 post-irradiation, HGF 3.3 μg/day, vs vehicle) | erythema score (X-ray irradiated mice; [5]) | hair loss score (X-ray irradiated mice; [5]) | radiation dermatitis (overall measures) (X-ray irradiated mice; [5]) | scale score (X-ray irradiated mice; [5]) | adipose layer in H&E histological sections (X-ray irradiated mice; skin 83 days post-irradiation, radiation alone) | ulceration score ([1]; 16.5 Gy plus wound, HGF 3.3 μg/day s.c. days 2, 7, 10) | characteristics of radiation dermatitis (hair loss, scale, erythema, ulceration) including combined score [1, 6] | rate of wound closure / wound repair [1, 6] | adipose layer in histological sections ([1]; combined injury, 83 days post-irradiation) | wound re-epithelization and closure [2] | cell viability of DP cells [3] | wound re-epithelization and closure [4] | average graft size (grafted DECs; at 10 weeks, peptide 10 μM, ImageJ) [mm2] | mice that retained the graft until 10 weeks (grafted DECs; peptide 10 μM in DECs, n=5 per group) | alkaline phosphatase activity of DP cells (dermal papilla cells) | decrease of severity of aggregate radiation dermatitis scores (mice with CI) [%]
HGF: Hepatocyte growth factor, a pluripotent factor; a known adult tissue repair factor | not markedly different | not markedly different | not markedly different | did not improve any measures | not markedly different | some improve preservation of the adipose layer | somewhat exacerbate ulceration | did not improve any measure | did not accelerate wound repair | some improvement in the adipose layer in some animals | – | – | – | – | – | – | –
QPQPLPSPGVGGKN [TSN18, 14 aa combination of non-helical Collagen (VI) Alpha-3 chain regions] | – | – | – | – | – | – | – | – | – | – | promoted wound re-epithelization and closure | did not affect | promoted wound re-epithelization and closure | 16.4±5.4 | four out of five | did not affect | ~50
